Tests used:
Assay in all cases: spectrophotometric NADH formation at […] nm, cell extract
Assay type in all cases: biochemical
Settings in all cases: 0.4 mM NAD+, 5 mM 6-phosphogluconate, 5 mM MgCl2, 50 mM Tris-HCl pH 8.0, 30 C
[1] = target: T1, B. japonicum 6pgdh (NAD+-dependent 6-phosphogluconate dehydrogenase) (Bradyrhizobium diazoefficiens, UniProt Q89FE2)
T1 construct: gene blr6759; codon-optimized gene, TPI1 promoter, integrated at GND1 locus of S. cerevisiae gnd1 gnd2 deletion strain IMX706; cell extract
T1 sequence (Q89FE2 entry or part of it): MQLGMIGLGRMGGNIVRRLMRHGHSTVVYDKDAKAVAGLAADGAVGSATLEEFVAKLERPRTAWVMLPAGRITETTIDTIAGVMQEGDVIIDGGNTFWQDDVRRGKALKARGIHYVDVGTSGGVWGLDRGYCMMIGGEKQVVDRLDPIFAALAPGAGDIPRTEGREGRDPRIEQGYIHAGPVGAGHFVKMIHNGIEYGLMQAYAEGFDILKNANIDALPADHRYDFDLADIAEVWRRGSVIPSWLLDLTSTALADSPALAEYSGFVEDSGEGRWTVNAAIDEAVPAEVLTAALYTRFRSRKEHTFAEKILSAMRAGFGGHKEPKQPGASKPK

[2] = target: T2, G. oxydans gox1705 (NAD+-preferring 6-phosphogluconate dehydrogenase) (Gluconobacter oxydans, UniProt G5EBD7)
T2 construct: codon-optimized gene, TPI1 promoter, integrated at GND1 locus of S. cerevisiae gnd1 gnd2 deletion strain IMX707; cell extract
T2 sequence (G5EBD7 whole entry): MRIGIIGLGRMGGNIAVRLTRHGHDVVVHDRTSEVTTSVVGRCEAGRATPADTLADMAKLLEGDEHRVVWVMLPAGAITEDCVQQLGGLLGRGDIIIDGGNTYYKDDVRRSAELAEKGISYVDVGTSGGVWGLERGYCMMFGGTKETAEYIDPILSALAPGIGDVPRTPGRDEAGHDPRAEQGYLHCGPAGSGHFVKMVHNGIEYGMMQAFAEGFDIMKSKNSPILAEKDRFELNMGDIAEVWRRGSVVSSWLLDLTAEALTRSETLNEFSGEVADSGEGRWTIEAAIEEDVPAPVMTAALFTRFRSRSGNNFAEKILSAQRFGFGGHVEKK

[3] = target: T3, GndA (M. flagellatus NAD+-dependent 6-phosphogluconate dehydrogenase, gndA) (Methylobacillus flagellatus, UniProt Q9L9P8)
T3 construct: codon-optimized gene, TPI1 promoter, integrated at GND1 locus of S. cerevisiae gnd1 gnd2 deletion strain IMX705; cell extract
T3 sequence (Q9L9P8 entry or part of it): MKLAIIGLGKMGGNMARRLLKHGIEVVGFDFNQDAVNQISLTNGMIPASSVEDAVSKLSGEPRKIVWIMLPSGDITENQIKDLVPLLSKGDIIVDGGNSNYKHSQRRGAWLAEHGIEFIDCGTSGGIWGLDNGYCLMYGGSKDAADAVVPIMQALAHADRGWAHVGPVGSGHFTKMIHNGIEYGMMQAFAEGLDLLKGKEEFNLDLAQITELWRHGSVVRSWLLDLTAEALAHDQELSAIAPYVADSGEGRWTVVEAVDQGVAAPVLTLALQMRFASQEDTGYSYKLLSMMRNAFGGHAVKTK

## NC(=O)c1ccc[n+]([C@@H]2O[C@H](COP(=O)(O)OP(=O)(O)OC[C@H]3O[C@@H](n4cnc5c(N)ncnc54)[C@H](O)[C@@H]3O)[C@@H](O)[C@H]2O)c1 [NAD^+]
[1]
  spectrophotometric NADH formation at 340 nm, cell extract: expressing bacterial 6-PGDH genes showed high specific activities with NAD^+ as the electron acceptor
[2]
  spectrophotometric NADH formation at 340 nm, cell extract: expressing bacterial 6-PGDH genes showed high specific activities with NAD^+ as the electron acceptor
[3]
  spectrophotometric NADH formation at 340 nm, cell extract: expressing gndA from M. flagellatus, showed the highest in vitro NAD^+-dependent 6-PGDH activity

Source: article PMC5574463, “Improving ethanol yield in acetate-reducing Saccharomyces cerevisiae by cofactor engineering of 6-phosphogluconate dehydrogenase and deletion of ALD6” (Microbial Cell Factories, 2016)
